Source: paper PMC12916490 (Molecular Psychiatry, 2025)
Read-outs that look alike come from different tables or passages of the source.

Columns and labels:
hTAAR1 = molecular target: T1, hTAAR1 (Homo sapiens, UniProt Q96RJ0); assay: Functional activity at human TAAR1 (cAMP); format: cell-based; details: for Emax: mean (95% CI), β-phenylethylamine as maximal response, read-out: hTAAR1 Activation efficacy Emax
T1 construct: expressed in transfected cells
T1 sequence (Q96RJ0 1-339): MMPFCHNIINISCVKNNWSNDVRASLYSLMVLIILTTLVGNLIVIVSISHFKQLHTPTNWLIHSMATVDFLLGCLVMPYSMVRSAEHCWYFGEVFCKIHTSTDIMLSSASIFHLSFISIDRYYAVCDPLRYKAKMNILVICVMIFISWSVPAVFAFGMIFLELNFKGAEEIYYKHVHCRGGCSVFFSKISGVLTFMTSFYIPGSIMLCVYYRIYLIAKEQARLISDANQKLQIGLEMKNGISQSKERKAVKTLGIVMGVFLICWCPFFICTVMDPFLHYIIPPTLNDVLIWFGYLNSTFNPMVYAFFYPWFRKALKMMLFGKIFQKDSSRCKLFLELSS
Procedure: Activity at the human trace amine-associated receptor 1 (hTAAR1) was determined as previously described. More information can be found in the Supplementary information.
Then, the obtained RA values were used to calculate the bias factor (β) for each pathway combination. […]
pathway 1 over pathway 2. Brown-Forsythe and Welch ANOVA analyses were applied to estimate the statistical probability that β is different from zero.
3.3 Functional activity at the human TAAR1 […]
receptor 1 (hTAAR1) were generated by transfection with Lipofectamine 2000 (Invitrogen, Zug, Switzerland). The cells were harvested and pelleted by centrifugation at 900 rpm for 3 min at room temperature. The supernatant was then removed, and the cell pellet was resuspended in fresh culture medium. The cells were plated into 96 -well plates (100 μL, containing 80,000 cells per well) and incubated […]
The culture medium was removed, and the cells were washed once with 50 μL phosphate buffered saline without Ca2+ and Mg2+. Thereafter, 90 μL of Krebs -Ringer bicarbonate buffer (Sigma- […]
to 10 μM cAMP) was included on each plate. In addition, a reference plate containing RO5256390, β-phenylethylamine, and p-tyramine was included in each experiment. Test compound solution, β-phenylethylamine (as maximal response), or basal control were added at a volume of 30 μL, and the cells […]
Afterwards, the cells were lysed with 50 μL of detection mix solution […]
under heavy shaking. Fluorescence was then measured.
3.4 Plasma and brain tissue analysis
3.4.1 Analytical standards […]
to spike blank plasma or tissue homogenate at calibration standards of 1, 2.5, 5, 10, 25, 50, 100, 250, and […]
Extraction was performed by protein precipitation with 150 µL of acetonitrile added to 50 µL plasma in a 2-mL centrifuge tube. The samples were then vortexed for 10 s and shaken for 3 min at […]

C57BL/6 J mice = assay: Head-twitch response (HTR) dose-response in mice, 30-min session; format: in vivo, mouse; details: for HTR (count/30 min): mean ± SEM; for ED50: Mus musculus, sc, 0.5 h, read-out: HTR in mice ED50 (95% CI), ascending phase of dose-response curve
Procedure: Behavioral studies were conducted as previously described with minor modifications. Male C57BL/6 J mice (The Jackson Laboratory #000664, 24 mice/drug) were purchased at 8 weeks old, group housed for acclimation (3–5 per cage for 1–2 weeks) under a 12:12 light:dark cycle (07:00 local time = lights on), with ad libitum access to food and water at the NIDA IRP facilities in Baltimore, MD, USA. All experiments were approved by the NIDA IRP Animal Care and Use Committee. After acclimation to the vivarium facilities, each mouse was briefly anesthetized with isoflurane and a temperature transponder (14 × 2 mm, model IPTT-300, Bio Medic Data Systems, Inc., Seaford, DE, USA) was implanted subcutaneously (s.c.) on the back, posterior to the shoulder blades. After the implant, mice were single housed and allowed one week recovery prior to the start of experiments. […] Drugs were randomly assigned and administered s.c. as the weight of the form used at an injection volume of 0.01 mL/g body weight.
During experimental testing, mice were tested once every 1–2 weeks to avoid potential tolerance to behavioral effects of the test drugs and were tested 2–3 times in total per drug. Each test session began with a brief 5 min acclimation period to the testing arenas, followed by recording baseline body temperature using a handheld wand that was sensitive to the signals emitted from the s.c. transponder. After this, mice were injected s.c. with appropriate doses of test drug and returned to the chambers for a 30-min test session. During the dose-response sessions, locomotor activity was continuously recorded using open field chambers with photobeam arrays (Coulbourn Instruments, Holliston, MA, USA) that were modified with cylindrical inserts and custom floor panels that also allowed video recordings of each mouse to later quantify HTR activity (GoPro Hero 7 camera; 960p resolution at 120 frames per second). Videos for each mouse were analyzed post session using commercially available software used to quantify HTR as previously described.
Data analysis was performed with Prism software (version 10.1.2, GraphPad Software, Boston, MA, USA). The IC50 values from the radioligand binding assays were determined by nonlinear regression, using three independent concentration-response curves fitted to a one-site model. The Cheng-Prusoff equation was used to calculate Kᵢ values for the competing ligands. EC50 values were determined by applying nonlinear regression to concentration-response curves. Bias factors (β) were calculated based on the relative intrinsic activity approach. More detailed information can be found in the Supplementary information. Mean values for total number of HTR, change in body temperature from pre to post session (Δ°C), and total distance traveled (cm) for each drug dose were compared (p < 0.05) via Welch’s ANOVA with Dunnett’s T3 post test, comparing all doses to respective vehicle controls (0 mg/kg). Welch’s ANOVA with Dunnett’s T3 post test was also used to compare drug concentrations, but the data were compared to DOM in this case. Dose–response relationships for HTR and locomotor activities were plotted using bell-shaped curve fits, while temperature change data were plotted using four-parameter non-linear regression curve fits. The ascending phase of the HTR curve for each drug was used to determine ED50 potency values from four parameter non-linear regression fits. For combined DOM and DOAM administration, the plasma, brain tissue, and brain dialysate drug concentrations were compared using paired t-tests (p < 0.05). Ratios were compared using Holm-Sidak’s post hoc test following a repeated-measures one-way ANOVA (F (1.709, 6.835) = 70.80; p < 0.0001).
Locomotor activity and body temperature were also assessed to monitor other pharmacological effects of the drugs that may impact the HTR. […]

h5-HT2A = h5-HT2A (Homo sapiens, UniProt P28223); assay: biochemical; format: binding; design: expressed in transfected cells; host or cells: HEK 293 cells (membrane preparation)
h5-HT2A, sequence (P28223 whole entry, looked up): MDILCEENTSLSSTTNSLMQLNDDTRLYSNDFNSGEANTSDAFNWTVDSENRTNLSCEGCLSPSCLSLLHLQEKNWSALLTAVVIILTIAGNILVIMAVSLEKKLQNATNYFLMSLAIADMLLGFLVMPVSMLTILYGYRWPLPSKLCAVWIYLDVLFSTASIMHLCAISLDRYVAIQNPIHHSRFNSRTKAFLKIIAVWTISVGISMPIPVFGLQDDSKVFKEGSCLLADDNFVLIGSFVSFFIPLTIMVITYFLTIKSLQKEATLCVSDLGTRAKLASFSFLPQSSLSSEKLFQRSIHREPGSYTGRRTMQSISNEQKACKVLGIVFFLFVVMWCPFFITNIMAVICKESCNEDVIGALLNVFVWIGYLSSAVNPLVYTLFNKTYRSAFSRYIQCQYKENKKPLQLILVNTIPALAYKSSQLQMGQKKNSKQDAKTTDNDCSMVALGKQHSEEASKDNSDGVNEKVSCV

| SMILES | EC50 (hTAAR1) | HTR (count/30 min) (C57BL/6 J mice; 0.03 mg/kg s.c.) | HTR (count/30 min) (C57BL/6 J mice; 0.1 mg/kg s.c.) | HTR (count/30 min) (C57BL/6 J mice; 0.3 mg/kg s.c.) | HTR (count/30 min) (C57BL/6 J mice; 1 mg/kg s.c.) | HTR (count/30 min) (C57BL/6 J mice; 3 mg/kg s.c.) | HTR (count/30 min) (C57BL/6 J mice; 10 mg/kg s.c.) | HTR (count/30 min) (C57BL/6 J mice; 30 mg/kg s.c.) | ED50 (C57BL/6 J mice; s.c., 30 min session) | HTR in mice Emax (C57BL/6 J mice; s.c., 30 min session) | HTR in mice Maximum rate (C57BL/6 J mice; s.c., 30 min session) | Emax (hTAAR1) | Ki (h5-HT2A) | Selectivity (binding ratios) 5-HT2A/5-HT1A (h5-HT2A; ratio of Ki values) | Selectivity (binding ratios) 5-HT2A/5-HT2B (h5-HT2A; ratio of Ki values) | Selectivity (binding ratios) 5-HT2A/5-HT2C (h5-HT2A; ratio of Ki values) | also measured |
| --- | --- | --- | --- | --- | --- | --- | --- | --- | --- | --- | --- | --- | --- | --- | --- | --- | --- |
| COc1ccc(OC)c(CC(C)N)c1.Cl (stereo not drawn) [2,5-DMA, 2,5-Dimethoxyamphetamine hydrochloride] | > 30000 nM | 5.8 ± 1.9 count | 6.7 ± 0.7 count | 7.3 ± 1.2 count | 11.7 ± 2.1 count | 15.3 ± 0.6 count | 23.2 ± 1.9 count | 16.2 ± 5.0 count | 1.39 mg/kg | 23 total HTR count | 5 HTR count/5 min | – | – | – | – | – | – |
| CCCCCc1cc(OC)c(CC(C)N)cc1OC (stereo not drawn) [DOAM, 4-amyl-2,5-dimethoxyamphetamine] | 21800 nM | 7.8 ± 1.6 count | 6.2 ± 1.6 count | 6.5 ± 1.2 count | 9.5 ± 1.2 count | 28.5 ± 2.6 count | 44.8 ± 3.6 count | 26.0 ± 3.7 count | 2.76 mg/kg | 45 total HTR count | 9 HTR count/5 min | 86% | 3.5 nM | 2407 | 28 | 21 | – |
| CCCCc1cc(OC)c(CC(C)N)cc1OC (stereo not drawn) [DOBU, 4-butyl-2,5-dimethoxyamphetamine] | 10400 nM | 6.0 ± 0.9 count | 9.0 ± 1.7 count | 12.7 ± 1.3 count | 40.2 ± 2.9 count | 78.7 ± 6.2 count | 69.3 ± 4.7 count | 17.5 ± 4.5 count | 1.29 mg/kg | 79 total HTR count | 16 HTR count/5 min | 98% | 5.4 nM | 2506 | 30 | 11 | – |
| CCc1cc(OC)c(CC(C)N)cc1OC (stereo not drawn) [DOET, 4-ethyl-2,5-dimethoxyamphetamine] | – | – | – | – | – | – | – | – | – | – | – | – | 12 nM | – | – | – | – |
| COc1cc(CC(C)N)c(OC)cc1C (stereo not drawn) [DOM, 4-methyl-2,5-dimethoxyamphetamine] | > 30000 nM | 10.2 ± 1.9 count | 23.4 ± 2.1 count | 39.0 ± 3.3 count | 90.0 ± 4.4 count | 119.2 ± 9.7 count | 88.0 ± 18.1 count | 13.7 ± 3.9 count | 0.66 mg/kg | 119 total HTR count | 24 HTR count/5 min | – | 66 nM | – | – | – | Fold higher total HTR counts of DOM vs DOAM (C57BL/6 J mice; mouse, in vivo): 2.6 fold; Peak HTR rate (C57BL/6 J mice; s.c., 30 min session): 24 events/5 min; Time of peak HTR rate post drug administration (C57BL/6 J mice; s.c., 30 min session): 5 to 10 min |
| CCCc1cc(OC)c(CC(C)N)cc1OC.Cl (stereo not drawn) [DOPR, 4-propyl-2,5-dimethoxyamphetamine hydrochloride] | 10100 nM | 9.7 ± 2.2 count | 22.7 ± 2.8 count | 53.6 ± 2.9 count | 98.2 ± 2.3 count | 58.0 ± 9.6 count | 21.2 ± 3.0 count | – | 0.42 mg/kg | 98 total HTR count | 20 HTR count/5 min | 95% | 11 nM | – | – | – | HTR (count/30 min) (C57BL/6 J mice; 0.01 mg/kg s.c.): 6.2 ± 0.9 count; Selectivity (binding ratios) 5-HT2A/5-HT1A (h5-HT2A): 359; Selectivity (binding ratios) 5-HT2A/5-HT2B (h5-HT2A): 11; Selectivity (binding ratios) 5-HT2A/5-HT2C (h5-HT2A): 4 |
